Data reported in patent EP4722201A1, “3-PHENYLISOXAZOLINE-5-CARBOXAMIDE COMPOUND, AND PREPARATION METHOD THEREFOR, HERBICIDAL COMPOSITION THEREOF AND USE THEREOF” (Jiangsu Flag Chemical Industry Co., Ltd, priority 2023, dated 2024).

Columns and labels:
Format in all cases: in vivo
Cyperus iria = test: Indoor herbicide activity determination, post-emergence (stem and leaf spray at 2-4 leaf stage); details: 504 h, 60 g a.i./ha, determined 21 days later, read-out: Inhibition rate of fresh weight, Cyperus iria
Source text: (§1) The testing method for herbicide activity of the compound of the present invention was as follows:
(§2) Post-emergence: an appropriate quantity of seeds of gramineous weeds (Echinochloa crusgalli, Eleusine indica, Digitaria sanguinalis, Alopecurus japonicus, Beckmannia syzigachne, Leptochloa chinensis, Polypogon fugax, Alopecurus aequalis, Lolium multiflorum, Poa annua, Aegilops tauschii, Avena fatua, Alopecurus myosuroides, Alopecurus japonicus and Alopecurus aequalis), broad-leaved weeds (Eclipta prostrata, Amaranthus retroflexus, Rorippa indica, Malachium aquaticum, Veronica polita, Conyza canadensis, Sesbania cannabina, Sagittariatrifolia and Schoenoplectiella juncoides), and Cyperus iria were sown in plastic pots having a diameter of 7 cm and holes at the bottom and filled with nutrient soil (sandy soil, pH 6.1, organic matter 1%) respectively, the seeds were covered with an appropriate amount of soil after being sown, then the soil was wetted with water from the bottom, the seeds were cultured in a constant-temperature illuminated culture room until a 2-4 leaf stage, and stems and leaves underwent spray treatment. After the treatment, the test materials were placed in a laboratory and cultured in the constant-temperature illuminated culture room after the liquid was naturally dry in the shade, and results were determined 21 days later. Inhibition rate of fresh weight % = (1−(fresh weight of treated plants)/(fresh weight of control plants)) × 100% [formula]

Digitaria sanguinalis = test: as above; details: 504 h, 60 g a.i./ha, determined 21 days later, read-out: Inhibition rate of fresh weight, Digitaria sanguinalis
Source text: as §1, §2

Eclipta prostrata = test: as above; details: 504 h, 60 g a.i./ha, determined 21 days later, read-out: Inhibition rate of fresh weight, Eclipta prostrata
Source text: as §1, §2

Alopecurus japonicus = test: Indoor herbicide activity determination, Seed Treatment; pre-emergence (soil spray); details: Dosage 240 g a.i./ha
Summary of the method: (§3)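 Weed seeds sown in 7 cm pots of sandy nutrient soil (pH 6.1, 1% organic matter), kept 24 h in a constant-temperature lit room, then soil sprayed by traveling spray tower (flow 390 mL/min). Fresh-weight inhibition % versus untreated controls scored 21 days later.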

Alopecurus myosuroides = test: as above; details: Dosage 240 g a.i./ha
Summary of the method: as §3

Eleusine indica = test: as above; details: Dosage 240 g a.i./ha
Summary of the method: as §3

Leptochloa chinensis = test: as above; details: Dosage 240 g a.i./ha
Summary of the method: as §3

Lolium multiflorum = test: as above; details: Dosage 240 g a.i./ha
Summary of the method: as §3

SMILES	inhibition at 60 g/ha (Cyperus iria)	inhibition at 60 g/ha (Digitaria sanguinalis)	inhibition at 60 g/ha (Eclipta prostrata)	Herbicidal activities, Alopecurus japonicus (inhibition rate class) (Alopecurus japonicus)	Herbicidal activities, Alopecurus myosuroides (inhibition rate class) (Alopecurus myosuroides)	Herbicidal activities, Eleusine indica (inhibition rate class) (Eleusine indica)	Herbicidal activities, Leptochloa chinensis (inhibition rate class) (Leptochloa chinensis)	Herbicidal activities, Lolium multiflorum (inhibition rate class) (Lolium multiflorum)
COC(=O)[C@H]1C[C@@H](NC(=O)C2(C)CC(c3cc(F)cc(OC(F)(F)F)c3)=NO2)C1 (mixture of isomers) [I-159]	60 to 80%	80 to 100%	60 to 80%	A (A indicates that the inhibition rate was greater than or equal to 80% to 100%)	A (A indicates that the inhibition rate was greater than or equal to 80% to 100%)	A (A indicates that the inhibition rate was greater than or equal to 80% to 100%)	A (A indicates that the inhibition rate was greater than or equal to 80% to 100%)	A (A indicates that the inhibition rate was greater than or equal to 80% to 100%)
O=C(N[C@H]1C[C@@H](C(=O)O)C1)C1(C(F)(F)F)CC(c2cc(F)cc(Cl)c2)=NO1 (mixture of isomers) [I-223]	80 to 100%	80 to 100%	60 to 80%	A (A indicates that the inhibition rate was greater than or equal to 80% to 100%)	A (A indicates that the inhibition rate was greater than or equal to 80% to 100%)	A (A indicates that the inhibition rate was greater than or equal to 80% to 100%)	A (A indicates that the inhibition rate was greater than or equal to 80% to 100%)	A (A indicates that the inhibition rate was greater than or equal to 80% to 100%)
COC(=O)[C@H]1C[C@@H](NC(=O)C2(C(F)(F)F)CC(c3cc(F)cc(Cl)c3)=NO2)C1 (mixture of isomers) [I-225]	80 to 100%	80 to 100%	60 to 80%	A (A indicates that the inhibition rate was greater than or equal to 80% to 100%)	A (A indicates that the inhibition rate was greater than or equal to 80% to 100%)	A (A indicates that the inhibition rate was greater than or equal to 80% to 100%)	A (A indicates that the inhibition rate was greater than or equal to 80% to 100%)	A (A indicates that the inhibition rate was greater than or equal to 80% to 100%)
O=C(N[C@H]1C[C@@H](C(=O)O)C1)C1(C(F)(F)F)CC(c2cc(Cl)cc(Cl)c2)=NO1 (relative stereo) [I-229]	80 to 100%	80 to 100%	60 to 80%	A (A indicates that the inhibition rate was greater than or equal to 80% to 100%)	A (A indicates that the inhibition rate was greater than or equal to 80% to 100%)	A (A indicates that the inhibition rate was greater than or equal to 80% to 100%)	A (A indicates that the inhibition rate was greater than or equal to 80% to 100%)	A (A indicates that the inhibition rate was greater than or equal to 80% to 100%)
COC(=O)[C@H]1C[C@@H](NC(=O)C2(C(F)(F)F)CC(c3cc(Cl)cc(Cl)c3)=NO2)C1 (relative stereo) [I-231]	80 to 100%	80 to 100%	60 to 80%	A (A indicates that the inhibition rate was greater than or equal to 80% to 100%)	A (A indicates that the inhibition rate was greater than or equal to 80% to 100%)	A (A indicates that the inhibition rate was greater than or equal to 80% to 100%)	A (A indicates that the inhibition rate was greater than or equal to 80% to 100%)	A (A indicates that the inhibition rate was greater than or equal to 80% to 100%)
O=C(N[C@H]1C[C@@H](C(=O)O)C1)C1(C(F)(F)F)CC(c2cc(F)cc(C(F)(F)F)c2)=NO1 (relative stereo) [I-241]	80 to 100%	80 to 100%	60 to 80%	A (A indicates that the inhibition rate was greater than or equal to 80% to 100%)	A (A indicates that the inhibition rate was greater than or equal to 80% to 100%)	A (A indicates that the inhibition rate was greater than or equal to 80% to 100%)	A (A indicates that the inhibition rate was greater than or equal to 80% to 100%)	A (A indicates that the inhibition rate was greater than or equal to 80% to 100%)
COC(=O)[C@H]1C[C@@H](NC(=O)C2(C(F)(F)F)CC(c3cc(F)cc(C(F)(F)F)c3)=NO2)C1 (relative stereo) [I-243]	80 to 100%	80 to 100%	60 to 80%	A (A indicates that the inhibition rate was greater than or equal to 80% to 100%)	A (A indicates that the inhibition rate was greater than or equal to 80% to 100%)	A (A indicates that the inhibition rate was greater than or equal to 80% to 100%)	A (A indicates that the inhibition rate was greater than or equal to 80% to 100%)	A (A indicates that the inhibition rate was greater than or equal to 80% to 100%)
O=C(N[C@H]1C[C@@H](C(=O)O)C1)C1(C(F)(F)F)CC(c2cc(Cl)cc(C(F)(F)F)c2)=NO1 (relative stereo) [I-245]	80 to 100%	80 to 100%	60 to 80%	A (A indicates that the inhibition rate was greater than or equal to 80% to 100%)	A (A indicates that the inhibition rate was greater than or equal to 80% to 100%)	A (A indicates that the inhibition rate was greater than or equal to 80% to 100%)	A (A indicates that the inhibition rate was greater than or equal to 80% to 100%)	A (A indicates that the inhibition rate was greater than or equal to 80% to 100%)
O=C(N[C@H]1C[C@@H](C(=O)O)C1)C1(C(F)(F)F)CC(c2cc(F)cc(OC(F)(F)F)c2)=NO1 (relative stereo) [I-249]	80 to 100%	80 to 100%	60 to 80%	A (A indicates that the inhibition rate was greater than or equal to 80% to 100%)	A (A indicates that the inhibition rate was greater than or equal to 80% to 100%)	A (A indicates that the inhibition rate was greater than or equal to 80% to 100%)	A (A indicates that the inhibition rate was greater than or equal to 80% to 100%)	A (A indicates that the inhibition rate was greater than or equal to 80% to 100%)
COC(=O)[C@H]1C[C@@H](NC(=O)C2(C(F)(F)F)CC(c3cc(F)cc(OC(F)(F)F)c3)=NO2)C1 (relative stereo) [I-251]	80 to 100%	80 to 100%	60 to 80%	A (A indicates that the inhibition rate was greater than or equal to 80% to 100%)	A (A indicates that the inhibition rate was greater than or equal to 80% to 100%)	A (A indicates that the inhibition rate was greater than or equal to 80% to 100%)	A (A indicates that the inhibition rate was greater than or equal to 80% to 100%)	A (A indicates that the inhibition rate was greater than or equal to 80% to 100%)
